From EP4635500A1, “THERAPEUTIC AGENT FOR BACTERIAL INFECTION” (Sumitomo Pharma Co., Ltd., priority 2022, dated 2024)

Key:
Format in all cases: cell-based
Escherichia coli = assay: MIC, broth microdilution, standard strains and Japanese clinical isolates (Example 5, Table 4)
Klebsiella pneumoniae = assay: as above
Enterobacter cloacae = assay: as above
Enterobacter hormaechei = assay: as above; details: ATCCBAA2082; KUB4001 Enterobacter hormaechei ATCC BAA-2082, KPC-2
Providencia rettgeri = assay: as above; details: ATCCBAA2525; KUB4010 Providencia rettgeri ATCC BAA-2525, OXA-181
53 CRE and CPE strains = assay: MICrange, MIC50, MIC80, MIC90 for 53 bacterial isolates (Example 5, Table 5); details: 53 CRE and CPE strains

C[C@@H](O)[C@H]1C(=O)N2C(C(=O)O)=C(S[C@@H]3CN[C@H](C(=O)N(C)C)C3)[C@H](C)[C@H]12 [MEPM, meropenem]
0.25 µg/mL: MIC (Klebsiella pneumoniae; ATCCBAA2524, KUB3158 Klebsiella pneumoniae subsp. pneumoniae ATCC BAA-2524, OXA-48) | MIC (Enterobacter cloacae; KUB3165 Enterobacter cloacae Clinical isolate, IMP-34) | MIC (Enterobacter cloacae; KUB3167 Enterobacter cloacae Clinical isolate, IMP-1)
0.06 µg/mL: MIC (Escherichia coli; ATCCBAA2523, KUB3150 Escherichia coli ATCC BAA-2523, OXA-48) | MIC (Enterobacter cloacae; KUB3168 Enterobacter cloacae Clinical isolate, carbapenemase genes -)
8 µg/mL: MIC (Klebsiella pneumoniae; ATCCBAA1899, KUB3997 Klebsiella pneumoniae ATCC BAA-1899, KPC-2) | MIC (Klebsiella pneumoniae; ATCCBAA1900, KUB3998 Klebsiella pneumoniae ATCC BAA-1900, KPC-3) | MIC (Klebsiella pneumoniae; ATCCBAA1905, KUB3155 Klebsiella pneumoniae ATCC BAA-1905, KPC-2) | MIC (Klebsiella pneumoniae; KUB3628 Klebsiella pneumoniae Clinical isolate, IMP-1)
0.5 µg/mL: MIC (Escherichia coli; ATCCBAA2340, KUB3148 Escherichia coli ATCC BAA-2340, KPC-3) | MIC (Klebsiella pneumoniae; KUB3163 Klebsiella pneumoniae Clinical isolate, IMP-1) | MIC (Klebsiella pneumoniae; KUB3166 Klebsiella pneumoniae Clinical isolate, IMP-1) | MIC (Klebsiella pneumoniae; KUB3607 Klebsiella pneumoniae Clinical isolate, IMP-1) | MIC (Klebsiella pneumoniae; NCTC13439, KUB3159 Klebsiella pneumoniae NCTC13439, VIM-1) | MIC (Klebsiella pneumoniae; NCTC13440, KUB3160 Klebsiella pneumoniae NCTC13440, VIM-1)
32 µg/mL: MIC (Escherichia coli; ATCCBAA2471, KUB4007 Escherichia coli ATCC BAA-2471, NDM-6) | MIC (Escherichia coli; KUB3605 Escherichia coli Clinical isolate, NDM-1) | MIC (Klebsiella pneumoniae; ATCCBAA1898, KUB3996 Klebsiella pneumoniae ATCC BAA-1898, KPC-2) | MIC (Klebsiella pneumoniae; KUB3635 Klebsiella pneumoniae Clinical isolate, IMP-1)
256 µg/mL: MIC (Klebsiella pneumoniae; KUB3606 Klebsiella pneumoniae Clinical isolate, KPC-38)
1 µg/mL: MIC (Escherichia coli; ATCCBAA2452, KUB4005 Escherichia coli ATCC BAA-2452, NDM-1) | MIC (Escherichia coli; KUB3151 Escherichia coli NCTC13476, IMP-1) | MIC (Klebsiella pneumoniae; KUB3630 Klebsiella pneumoniae Clinical isolate, IMP-1) | MIC (Klebsiella pneumoniae; KUB3633 Klebsiella pneumoniae Clinical isolate, IMP-6) | MIC (Klebsiella pneumoniae; KUB3634 Klebsiella pneumoniae Clinical isolate, IMP-6)
16 µg/mL: MIC (Klebsiella pneumoniae; ATCCBAA2343, KUB4004 Klebsiella pneumoniae ATCC BAA-2343, KPC-3) | MIC (Klebsiella pneumoniae; ATCCBAA2470, KUB3157 Klebsiella pneumoniae subsp. pneumoniae ATCC BAA-2470, NDM-1) | MIC (Enterobacter cloacae; ATCCBAA2341, KUB4002 Enterobacter cloacae ATCC BAA-2341, KPC-3) | MIC (Enterobacter cloacae; KUB3609 Enterobacter cloacae Clinical isolate, IMP-1) | MIC (Enterobacter hormaechei) | MIC80 (53 CRE and CPE strains; read-out: MIC80)
4 µg/mL: MIC (Klebsiella pneumoniae; ATCCBAA1705, KUB3152 Klebsiella pneumoniae ATCC BAA-1705, KPC-2) | MIC (Klebsiella pneumoniae; ATCCBAA1903, KUB3154 Klebsiella pneumoniae ATCC BAA-1903, KPC-2) | MIC (Klebsiella pneumoniae; ATCCBAA2078, KUB4000 Klebsiella pneumoniae ATCC BAA-2078, KPC-3) | MIC (Klebsiella pneumoniae; ATCCBAA2342, KUB4003 Klebsiella pneumoniae ATCC BAA-2342, KPC-3) | MIC (Klebsiella pneumoniae; ATCCBAA2344, KUB3156 Klebsiella pneumoniae ATCC BAA-2344, KPC-2) | MIC (Klebsiella pneumoniae; KUB3631 Klebsiella pneumoniae Clinical isolate, IMP-1) | MIC (Enterobacter cloacae; KUB3610 Enterobacter cloacae Clinical isolate, IMP-1) | MIC50 (53 CRE and CPE strains; read-out: MIC50)
2 µg/mL: MIC (Escherichia coli; ATCCBAA2469, KUB3149 Escherichia coli ATCC BAA-2469, NDM-1) | MIC (Klebsiella pneumoniae; ATCCBAA1904, KUB3999 Klebsiella pneumoniae ATCC BAA-1904, KPC-3) | MIC (Klebsiella pneumoniae; KUB3164 Klebsiella pneumoniae Clinical isolate, IMP-6) | MIC (Providencia rettgeri)
64 µg/mL: MIC (Klebsiella pneumoniae; ATCCBAA1902, KUB3153 Klebsiella pneumoniae ATCC BAA-1902, KPC-3) | MIC (Klebsiella pneumoniae; ATCCBAA2146, KUB4011 Klebsiella pneumoniae ATCC BAA-2146, NDM-1) | MIC (Klebsiella pneumoniae; ATCCBAA2473, KUB4009 Klebsiella pneumoniae ATCC BAA-2473, NDM-1)
